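All cell lines were grown in 96-well plates and treated with compound for 48 hours. At the TGI there is no net growth.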
Columns and labels:
Test in all cases: NCI anticancer screen, dose series, 48 h
[1] = system: SF-539 CNS
[2] = system: EKVX NSCLC
[3] = system: MALME-3M melanoma
[4] = system: SF-295 CNS
[5] = system: NCI-H460 lung
[6] = system: OVCAR-3 ovarian
[7] = system: CAKI-1 renal
[8] = system: M14 melanoma
[9] = system: NCI-H226 lung
[10] = system: OVCAR-8 ovarian
[11] = system: HS 578T breast
[12] = system: SK-MEL-2 melanoma
[13] = system: MCF7 breast
[14] = system: UO-31 renal
[15] = system: HT29 colon
[16] = system: KM12 colon
[17] = system: TK-10 renal
[18] = system: K-562 leukemia
[19] = system: ACHN renal
[20] = system: UACC-62 melanoma
[21] = system: DU-145 prostate
[22] = system: HL-60(TB) leukemia
[23] = system: SN12C renal
[24] = system: IGROV1 ovarian
[25] = system: CCRF-CEM leukemia
[26] = system: T-47D breast
[27] = system: RXF 393 renal
[28] = system: A498 renal
[29] = system: SW-620 colon
[30] = system: HCC-2998 colon
[31] = system: SK-MEL-28 melanoma
[32] = system: LOX IMVI melanoma
[33] = system: SK-OV-3 ovarian
[34] = system: SF-268 CNS
[35] = system: HCT-15 colon
[36] = system: OVCAR-4 ovarian
[37] = system: UACC-257 melanoma
[38] = system: NCI-H23 lung
[39] = system: HOP-62 NSCLC
[40] = system: HOP-92 NSCLC
[41] = system: COLO 205 colon
[42] = system: BT-549 breast
[43] = system: MOLT-4 leukemia
[44] = system: MDA-MB-231 breast
[45] = system: PC-3 prostate
[46] = system: SK-MEL-5 melanoma
[47] = system: MDA-N
[48] = system: RPMI-8226 leukemia
[49] = system: NCI/ADR-RES ovarian
[50] = system: OVCAR-5 ovarian
[51] = system: SNB-19 CNS
[52] = system: HCT-116 colon
[53] = system: NCI-H522 lung
[54] = system: MDA-MB-435
[55] = system: U251 CNS
[56] = system: 786-0 renal
[57] = system: A549 NSCLC
[58] = system: SNB-75 CNS

O=[As](O)(O)c1ccc(Cc2ccc([As](=O)(O)O)cc2)cc1
TGI [1]: 542 nM
TGI [2]: 2880 nM
TGI [3]: 2620 nM
TGI [4]: 8460 nM
TGI [5]: 2430 nM
TGI [6]: 2640 nM
TGI [7]: 2780 nM
TGI [8]: 2460 nM
TGI [9]: 7700 nM
TGI [10]: 1350 nM
TGI [11]: 12400 nM
TGI [12]: 2870 nM
TGI [13]: 1190 nM
TGI [14]: 2630 nM
TGI [15]: 2380 nM
TGI [16]: 5440 nM
TGI [17]: 1270 nM
TGI [18]: 3680 nM
TGI [19]: 2310 nM
TGI [20]: 2620 nM
TGI [21]: 1170 nM
TGI [22]: 3980 nM
TGI [23]: 2080 nM
TGI [24]: 1940 nM
TGI [25]: 1050 nM
TGI [26]: 1870 nM
TGI [27]: 1530 nM
TGI [28]: 3960 nM
TGI [29]: 2180 nM
TGI [30]: 3680 nM
TGI [31]: 2920 nM
TGI [32]: 1410 nM
TGI [33]: 6190 nM
TGI [34]: 1850 nM
TGI [35]: 3210 nM
TGI [36]: 7470 nM
TGI [37]: 1300 nM
TGI [38]: 2260 nM
TGI [39]: 3600 nM
TGI [40]: 2920 nM
TGI [41]: 1900 nM
TGI [42]: 3090 nM
TGI [43]: 4260 nM
TGI [44]: 2300 nM
TGI [45]: 1760 nM
TGI [46]: 1890 nM
TGI [47]: 1650 nM
TGI [48]: 984 nM
TGI [49]: 6790 nM
TGI [50]: 4650 nM
TGI [51]: 2650 nM
TGI [52]: 2130 nM
TGI [53]: 1440 nM
TGI [54]: 2370 nM
TGI [55]: 1510 nM
TGI [56]: 1290 nM
TGI [57]: 3810 nM
TGI [58]: 3120 nM
